Where two headings read alike, the source gives them in different places.

Series [1] in a line: Water, HCHO and biuret content of urea compositions by IR and/or HPLC. It counts as physicochemical. The settings on record: average. The procedure:
The water, HCHO, NBPT and biuret content of the urea compositions were analyzed by IR and/or HPLC. All concentrations were calculated in μg/ml unless otherwise noted. HPLC samples were prepared by weighing approximately 0.4 grams of sample into a 10-20 mL disposable glass vial or volumetric flask. For high concentration samples (>30% inhibitor), approximately 0.025 grams of sample was weighed into a 100 mL volumetric flask. For lower concentration samples, 10 mL of water was added and the sample was shaken until the sample was dissolved. For higher concentration samples, the sample was diluted to the 100 mL mark with diluent. A disposable dropper was used to transfer the sample into an autosampler vial. The sample was analyzed in duplicate including a diluent blank using the conditions below. The evaluation was carried out by the method of external standard with the calibration using a calibration line. A minimum of 2 sets of standards as set out below were run before and after unknowns. RSD is the relative deviation in rel. %, calculated from three repeats of sampling and two repeats of analysis of each sample (see EP 15688). […]
The chromatogram was evaluated at the wavelength of 214 nm. […]

A short description of series [2]: SGN of granular product (product specifications). The settings on record: average. It counts as physicochemical.
Series [3] in a line: Crush strength of urea particles. The format is physicochemical. Conditions: average strength of 20 particles. The procedure:
The crush strength was determined by subjecting individual particles of urea to a measured force, applied by means of a metal plunger. The force, at which the particle fractures, was taken as a measure of strength. The average strength of 20 particles were reported.

For series [4] the following is noted: cited from earlier work.

Turning to `NC(N)=O` [Urea], the “% HCHO” value in series [1] was less than 0.5%. Moreover, in series [2], the SGN came out at 277.0. In addition, in series [3], the “Crush Strength” value worked out at 7.5 lbs.

In the case of `CCCCNP(N)(N)=S` [NBPT, N-(n-butyl) thiophosphoric triamide], the results for the “half-life of NBPT” value in series [4] (NBPT injected into the melted urea before granulation) and in series [4] (surface-treated urea) were “more than one” and “about six”, respectively.

These data come from patent US9790136B2, “Urea and nitrogen stabilizer compositions and methods and systems of making and using thereof” (Koch Agronomic Services, LLC, priority 2013, dated 2017).
